Results as given in the supplement of paper PMC10307832.

Tests used:
Assay in all cases: relative viability (nuclei count vs DMSO), 5 days (fraction); higher = more cells survive
[1] = compound: CC1=CC(=CC=C1)NC2=NC(=CS2)C3=CC=NC=C3 + Cc1cc(Nc2cc(N3CCN(C)CC3)nc(Sc3ccc(NC(=O)C4CC4)cc3)n2)n[nH]1 [Tozasertib] (partner 0.1 µM)
How it was run: (§1)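 Lung cancer cell lines were pin-tool dosed in 1536-well plates on the day after seeding, with either a lone drug or a fixed anchor-drug dose plus five library-drug doses (not always all listed) in √10 steps. Nuclei were counted on 4× images after 5 days. Relative viability is the ratio of treated-well to vehicle-well nuclei counts, with each value a median of duplicate plates.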

[2] = compound: Cc1ccc(NC(=O)c2ccc(CN3CCN(C)CC3)cc2)cc1Nc1nc(-c2cccnc2)cs1 [Masitinib] + CC(=O)c1c(C)c2cnc(Nc3ccc(N4CCNCC4)cn3)nc2n(C2CCCC2)c1=O [Palbociclib] (partner 0.5 µM)
How it was run: as §1

[3] = compound: Cc1ccc(NC(=O)c2ccc(CN3CCN(C)CC3)cc2)cc1Nc1nc(-c2cccnc2)cs1 [Masitinib] + CC1(C)CCC(c2ccc(Cl)cc2)=C(CN2CCN(c3ccc(C(=O)NS(=O)(=O)c4ccc(N[C@H](CCN5CCOCC5)CSc5ccccc5)c(S(=O)(=O)C(F)(F)F)c4)cc3)CC2)C1 [Navitoclax] (partner 0.5 µM)
How it was run: as §1

[4] = compound: Cc1ccc(NC(=O)c2ccc(CN3CCN(C)CC3)cc2)cc1Nc1nc(-c2cccnc2)cs1 [Masitinib] + C[C@]1(O)C[C@@H](c2nc(-c3ccc4ccc(-c5ccccc5)nc4c3)c3c(N)nccn32)C1 [Linsitinib] (partner 1 µM)
How it was run: as §1

| Cell Line | relative viability ([1]; first compound 0.08 µM) | relative viability ([1]; first compound 0.253 µM) | relative viability ([1]; first compound 0.8 µM) | relative viability ([1]; first compound 2.53 µM) | relative viability ([1]; first compound 8 µM) | relative viability ([2]; first compound 0.01 µM) | relative viability ([2]; first compound 0.03162 µM) | relative viability ([2]; first compound 0.1 µM) | relative viability ([2]; first compound 0.3162 µM) | relative viability ([2]; first compound 1 µM) | relative viability ([3]; first compound 0.01 µM) | relative viability ([3]; first compound 0.1 µM) | relative viability ([3]; first compound 0.3162 µM) | relative viability ([3]; first compound 1 µM) | relative viability ([4]; first compound 0.01 µM) | relative viability ([4]; first compound 0.1 µM) | relative viability ([4]; first compound 0.3162 µM) | relative viability ([4]; first compound 1 µM) | relative viability ([3]; first compound 0.03162 µM) | relative viability ([4]; first compound 0.03162 µM) |
| --- | --- | --- | --- | --- | --- | --- | --- | --- | --- | --- | --- | --- | --- | --- | --- | --- | --- | --- | --- | --- |
| NCI-H1993 | 0.543 | 0.605 | 0.562 | 0.617 | 0.519 | 0.674 | 0.527 | 0.536 | 0.516 | 0.654 | 0.921 | 0.944 | 0.651 | 0.885 | 0.732 | 0.733 | 0.659 | 0.665 | – | – |
| CAL-12T | 0.381 | 0.277 | 0.32 | 0.25 | 0.185 | 0.445 | 0.333 | 0.455 | 0.305 | 0.502 | 1.52 | 1.26 | 1.17 | 1.25 | 0.769 | 0.94 | 0.904 | 0.805 | 1.32 | 0.751 |
| NCI-H1623 | 0.393 | 0.403 | 0.377 | 0.385 | 0.363 | – | – | – | – | – | – | – | – | – | – | – | – | – | – | – |
| HCC-44 | 0.743 | 0.782 | 0.857 | 0.676 | 0.795 | 0.973 | 0.95 | 0.985 | 0.863 | 0.962 | 0.84 | 0.952 | 0.806 | 0.977 | 0.567 | 0.648 | 0.568 | 0.666 | 0.84 | 0.487 |
| EKVX | 0.45 | 0.395 | 0.36 | 0.384 | 0.294 | 0.35 | 0.333 | 0.343 | – | 0.295 | – | 0.865 | 0.577 | 0.968 | – | 0.876 | 0.881 | 1.06 | 0.688 | 0.87 |
| NCI-H1666 | 0.588 | 0.56 | 0.503 | 0.582 | 0.436 | 0.665 | 0.63 | 0.696 | 0.628 | 0.617 | 0.933 | 0.915 | 0.782 | 0.88 | 0.806 | 0.846 | 0.781 | 0.718 | 0.778 | 0.774 |
| NCI-H2170 | 0.729 | 0.71 | 0.663 | 0.793 | 0.628 | 0.383 | 0.331 | 0.438 | 0.403 | 0.417 | 0.683 | 0.546 | 0.577 | 0.559 | – | – | – | – | 0.486 | – |
| NCI-H1734 | 0.25 | 0.285 | 0.22 | 0.246 | 0.23 | 0.362 | 0.327 | 0.393 | 0.394 | 0.335 | 0.861 | 1 | 0.933 | 0.842 | 0.857 | 0.943 | 0.747 | 0.855 | 0.779 | 0.854 |
| Calu-6 | – | – | – | – | – | – | – | – | – | – | 0.836 | 0.89 | 0.821 | 0.904 | 0.815 | 1.06 | 0.997 | 0.902 | 0.872 | 0.916 |
| EBC-1 | – | – | – | – | – | – | – | – | – | – | 0.363 | 0.41 | 0.385 | 0.494 | 0.685 | 1.21 | 0.857 | 0.588 | 0.397 | 0.753 |
| A-427 | 0.245 | 0.185 | 0.216 | 0.213 | 0.192 | 0.453 | 0.557 | 0.548 | 0.525 | 0.488 | – | – | 0.927 | 0.933 | – | – | 1.18 | 1.07 | 0.99 | 1.06 |
| NCI-H2405 | 0.65 | 0.727 | 0.541 | 0.691 | 0.602 | 0.48 | 0.504 | 0.508 | 0.499 | 0.514 | 0.874 | 1.07 | 0.731 | 0.825 | 0.96 | 0.945 | 0.882 | 0.9 | 1.01 | 1.01 |
| NCI-H1437 | 0.417 | 0.465 | 0.448 | 0.448 | 0.407 | 0.25 | 0.32 | 0.248 | 0.302 | 0.305 | 1.07 | 1.08 | 1.1 | 1.06 | 1.1 | 0.986 | 1.04 | 1.07 | 1.01 | 0.991 |
| SK-MES-1 | 0.708 | 0.679 | 0.722 | 0.737 | 0.718 | 0.306 | 0.269 | 0.318 | 0.302 | 0.336 | 1.29 | 1.24 | 1.17 | 0.99 | 1.11 | 1.16 | 1.03 | 0.987 | 1.23 | 1.18 |
| RERF-LC-KJ | 0.447 | 0.476 | 0.438 | 0.382 | 0.259 | 1.05 | 1.02 | 1.09 | 1.21 | 0.938 | 0.986 | 1.07 | 0.873 | 0.541 | 0.878 | 0.926 | 0.871 | 0.736 | – | 0.849 |
| NCI-H23 | 0.404 | 0.324 | 0.296 | 0.253 | 0.418 | 0.439 | 0.482 | 0.598 | 0.575 | 0.527 | 0.879 | 0.966 | 0.706 | 0.872 | 0.656 | 0.613 | 0.525 | 0.493 | 0.789 | 0.58 |
